For assay [1], the target named is T1, hemoglobin in stool samples (Homo sapiens, UniProt P68871+P69905). The assay is described as follows: Accelerated shipping simulation (35C 16 hour challenge), hemoglobin % recovery by ELISA.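 Note: stool hemoglobin measured by ELISA before and after thermal-cycler shipping stress, stability given as percent of pre-stress hemoglobin recovered afterwards.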 Also noted: To assess the stability of hemoglobin in stool samples, samples were exposed to simulated shipping stress conditions; from tissue; host or cells: stool samples.

The target in the next assay is T2, hemoglobin (Hb) (Homo sapiens, UniProt P68871+P69905).
T2 construct: To assess the stability of hemoglobin in stool samples, samples were exposed to simulated shipping stress conditions; from tissue; host or cells: stool samples
Description: Appendix B: additives in Hb Collection Buffer, % Hb Recovery.

The target in assay [2] is T1, hemoglobin in stool samples. Description: 3-Day shipping simulation, hemoglobin % recovery by ELISA.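 Note: stool samples put through shipping stress in a thermal cycler, hemoglobin quantified by ELISA before and after, stability given as post-stress % of the pre-stress level.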 Also noted: from tissue; host or cells: stool samples.
The target is the same in assay [3]. The assay is described as follows: 7-Day shipping simulation, hemoglobin % recovery by ELISA. Also noted: from tissue; host or cells: stool samples. On the procedure: (§1) To assess the stability of hemoglobin in stool samples, samples were exposed to simulated shipping stress conditions using a thermal cycler. […] An ELISA based detection method is used to determine the hemoglobin concentrations of samples before and after exposure to the shipping simulation. Hemoglobin stability is calculated as a % recovery of hemoglobin after the samples have been exposed to the shipping simulation.
To assess the stability of hemoglobin in stool samples beyond 3 days, a 7-Day shipping simulation was created.

A further assay addresses T3, Hb (Homo sapiens, UniProt P68871+P69905).
T3 construct: To assess the stability of hemoglobin in stool samples, samples were exposed to simulated shipping stress conditions; from tissue; host or cells: stool samples
The assay is described as follows: Appendix B additive screen, % Hb Recovery.

For assay [4], the target named is T1, hemoglobin in stool samples. Description: Accelerated shipping simulation (35C 16 hour challenge), hemoglobin % recovery by ELISA. Also noted: from tissue; host or cells: stool samples.
The target is the same in assay [5]. Description: 3-Day extreme temperature shipping simulation, hemoglobin % recovery by ELISA. Also noted: from tissue; host or cells: stool samples. On the procedure:
as §1
As an additional challenge, a shipping simulation meant to represent a “worst case” scenario was created using extreme temperatures.

The target is the same in assay [6]. The assay is described as follows: 7-Day modified shipping simulation, hemoglobin % recovery by ELISA. Also noted: from tissue; host or cells: stool samples.
Another assay has as its target T4, hemoglobin (Homo sapiens, UniProt P68871+P69905).
T4 construct: To assess the stability of hemoglobin in stool samples, samples were exposed to simulated shipping stress conditions; from tissue; host or cells: stool samples
The assay is described as follows: Appendix B additive screen in Hb Collection Buffer, % Hb Recovery.

“Also recorded” adds a separate entry of the source.

T2 sequence (P69905 2-142 limits assumed): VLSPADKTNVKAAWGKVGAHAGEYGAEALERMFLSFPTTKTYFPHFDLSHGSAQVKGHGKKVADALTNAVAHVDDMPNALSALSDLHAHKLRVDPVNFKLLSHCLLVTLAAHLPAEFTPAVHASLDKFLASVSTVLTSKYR
T2 sequence (P68871 2-147 limits assumed): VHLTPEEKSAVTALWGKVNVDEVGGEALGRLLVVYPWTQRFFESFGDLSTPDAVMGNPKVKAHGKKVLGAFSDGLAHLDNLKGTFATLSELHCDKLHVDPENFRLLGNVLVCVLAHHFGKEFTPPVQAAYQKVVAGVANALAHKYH
T1 sequence (P69905 2-142 limits assumed): as the sequence (P69905 2-142 limits assumed) above
T1 sequence (P68871 2-147 limits assumed): as the sequence (P68871 2-147 limits assumed) above
T4 sequence (P69905 2-142 limits assumed): as the sequence (P69905 2-142 limits assumed) above
T4 sequence (P68871 2-147 limits assumed): as the sequence (P68871 2-147 limits assumed) above
T3 sequence (P69905 2-142 limits assumed): as the sequence (P69905 2-142 limits assumed) above
T3 sequence (P68871 2-147 limits assumed): as the sequence (P68871 2-147 limits assumed) above

As to `O=C(O)[C@@H](CO)O[C@@H]1O[C@H](CO)[C@@H](O)[C@H](O)[C@@H]1O`, the Results result in [1] (additive concentration 0.377 mM) and in assay [1] (additive concentration 1 mM) was “No Improvement” in each case.
With `[Ca+2].[Cl-].[Cl-]` [Calcium Chloride], the Results entry was “No improvement; also recorded: Improvement in % Hb” on hemoglobin (Hb) (Additive Concentration 10 mM); “Calcium cation shows” in assay [2] (Additive Concentration 10 mM); “Calcium cation shows” in [2] (additive concentration 5 mM); “Calcium cation shows” in [2] (additive concentration 10 mM); “Calcium cation shows” in [2] (additive concentration 20 mM); “Calcium cation shows” in [2] (additive concentration 30 mM). Moreover, the Results entry in [2] (additive concentration 40 mM) was “Calcium cation shows”; in assay [2] (additive concentration 50 mM), “Calcium cation shows”; at Hb, “Calcium cation shows”; in [4], “Calcium cation shows; also recorded: Improvement”. Also, the “Notes (Hb stability vs Hb Collection Buffer)” value in assay [2] (additive concentrations as in the 8th table), in assay [3] (additive concentrations as in the 9th table) and in [5] (additive concentrations as in the 10th table) was “Improved Hb” throughout.
Take `C=Cc1c(C)c2cc3[nH]c(cc4nc(cc5nc(cc1[nH]2)C(C)=C5CCC(=O)[O-])C(CCC(=O)[O-])=C4C)c(C)c3C=C.[Co+2]` [Protoporphyrin IX Co, Protoporphyrin IX Cobalt]: the Results result is given as “No Improvement” at hemoglobin (Hb) (Additive Concentration 0.1 uM); “Improvement in % Hb” at hemoglobin (Hb) (additive concentration 5 uM); “Improvement in % Hb” at hemoglobin (Hb) (additive concentration 10 uM); “Improvement in % Hb” in assay [4] (additive concentration 5 uM); “Improvement” in assay [4] (additive concentration 5 uM, pH 6.5); “Improvement” in [4] (additive concentration 5 uM, pH 7.4). Besides, the “Notes (Hb stability vs Hb Collection Buffer)” value is “Improved Hb” in assay [6] (3-6 μM, buffer pH 6.4-7.0 as in the 17th table); “Improved Hb” in [2] (3-Day and 7-Day Shipping Simulation, concentrations and pH as in the 18th table); “Improved” in [2] (concentrations and buffer pH 6.5 or 7.4 as in the 13th table); “Improved” in assay [3] (concentrations and buffer pH 6.5 or 7.4 as in the 14th table); “Improved Hb” in assay [4] (35C 16 hour challenge, concentrations and pH as in the 19th table); “Improved” in assay [5] (concentrations and buffer pH 6.5 or 7.4 as in the 15th table). In addition, the “Hb stability (in words)” value in [6] (concentrations of 3-6 μM, adjusted pH range of 6.4-7.0) is given as “increased Hb stability”; in assay [2] (3 and 7 day Shipping Simulations, concentrations of 2.5-10 µM, adjusted pH of 6.8) it was “increased Hb stability”; in assay [4] (35C 16 hour challenge, concentrations of 2.5-10 μM, adjusted pH range of 6.2-7.4), “increased Hb stability”. For the same molecule, the “Hb stability compared to the Polymedco buffer (in words)” value in assay [5] (additive in Hb Collection Buffer) is on record as “improved Hb stability compared to the Polymedco buffer”.
Regarding `O=NO` [Sodium Nitrite], the Results result at hemoglobin is on record as “No Improvement”.
Same read-out and setting: the value for `O=C(O)c1cccnc1` [Vitamin B3] was “No Improvement”.

These data come from patent US20240402196A1 (Exact Sciences Corporation, priority 2018, published 2024).
